Reference: US10000501B2, “Inhibitors of HIF prolyl hydroxylase” (MERCK SHARP & DOHME CORP., priority 2014, dated 2018)

Molecular target: T1, human HIF-PHD2 (Homo sapiens, UniProt Q9GZT9)
T1 construct: FLAG-tagged full length PHD2 expressed in and purified from baculovirus-infected Sf9 cells; FLAG; made in house; host or cells: baculovirus-infected Sf9 cells
Test: HIF-PHD2 inhibition assay (hydroxylation of HIF-1α peptide, time resolved fluorescence)
Type: biochemical
Conditions: FLAG-tagged full length PHD2; 0.2 μM 2-oxoglutarate, 0.5 μM HIF-1α peptide
Experimental: To each well of a 384-well plate, 1 μL of test compounds in DMSO (final concentration ranging from 0.3 nM to 10 uM) were added into 20 μl of assay buffer (50 mM Tris pH 7.4/0.01% Tween-20/0.1 mg/ml bovine serum albumin/10 μM ferrous sulfate/1 mM sodium ascorbate/20 μg/ml catalase) containing 0.15 μg/ml FLAG-tagged full length PHD2 expressed in and purified from baculovirus-infected Sf9 cells. […] Purif.

T1 sequence (Q9GZT9 whole entry): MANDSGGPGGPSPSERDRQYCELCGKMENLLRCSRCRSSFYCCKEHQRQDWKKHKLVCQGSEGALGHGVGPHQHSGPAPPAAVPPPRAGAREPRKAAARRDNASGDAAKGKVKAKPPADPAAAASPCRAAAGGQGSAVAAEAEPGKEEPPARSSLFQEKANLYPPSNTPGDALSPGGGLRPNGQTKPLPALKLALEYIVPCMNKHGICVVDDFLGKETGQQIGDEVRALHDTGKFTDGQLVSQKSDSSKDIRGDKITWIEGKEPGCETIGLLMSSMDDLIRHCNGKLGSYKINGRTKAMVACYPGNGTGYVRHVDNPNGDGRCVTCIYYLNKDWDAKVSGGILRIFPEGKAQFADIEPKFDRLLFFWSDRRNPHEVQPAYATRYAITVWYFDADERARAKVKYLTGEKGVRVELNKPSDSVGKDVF

IC50 | SMILES
43 nM | O=C(O)CNC(=O)c1c(O)c2c(n(Cc3nc4ccccc4s3)c1=O)C1CCC2C1 (racemic) [Example 82, 2-((5S,8R)-1-(benzo[d]thiazol-2-ylmethyl)-4-hydroxy-2-oxo-1,2,5,6,7,8-hexahydro-5,8-methanoquinoline-3-carboxamido)acetic acid]
6.7 nM | CN1Cc2c(c(O)c(C(=O)NCC(=O)O)c(=O)n2Cc2ccc(C(F)(F)F)cc2)CC1=O [Example 3, 2-(4-Hydroxy-7-methyl-2,6-dioxo-1-(4-(trifluoromethyl)benzyl)-1,2,5,6,7,8-hexahydro-1,7-naphthyridine-3-carboxamido)acetic acid]
41.8 nM | O=C(O)CNC(=O)c1c(O)c2c([nH]c1=O)CCOC2 [Example 4, 2-(4-Hydroxy-2-oxo-2,5,7,8-tetrahydro-1H-pyrano[4,3-b]pyridine-3-carboxamido)acetic acid]
13.9 nM | N#Cc1ccc(Cn2c3c(c(O)c(C(=O)NCC(=O)O)c2=O)COCC3)cc1 [Example 5, 2-(1-(4-Cyanobenzyl)-4-hydroxy-2-oxo-2,5,7,8-tetrahydro-1H-pyrano[4,3-b]pyridine-3-carboxamido)acetic acid]
15.6 nM | COc1ccc(Cn2c3c(c(O)c(C(=O)NCC(=O)O)c2=O)COCC3)cc1 [Example 6, 2-(4-hydroxy-1-(4-methoxybenzyl)-2-oxo-2,5,7,8-tetrahydro-1H-pyrano[4,3-b]pyridine-3-carboxamido)acetic acid]
10.3 nM | O=C(O)CNC(=O)c1c(O)c2c(n(Cc3ccc(OC(F)(F)F)cc3)c1=O)CCOC2 [Example 7, 2-(4-hydroxy-2-oxo-1-(4-(trifluoromethoxy)benzyl)-2,5,7,8-tetrahydro-1H-pyrano[4,3-b]pyridine-3-carboxamido)acetic acid]
13.4 nM | O=C(O)CNC(=O)c1c(O)c2c(n(Cc3ccc(OC(F)F)cc3)c1=O)CCOC2 [Example 8, 2-(1-(4-(difluoromethxoy)benzyl)-4-hydroxy-2-oxo-2,5,7,8-tetrahydro-1H-pyrano[4,3-b]pyridine-3-carboxamido)acetic acid]
13.7 nM | O=C(O)CNC(=O)c1c(O)c2c(n(Cc3ccc(F)cc3)c1=O)CCOC2 [Example 9, 2-(1-(4-fluorobenzyl)-4-hydroxy-2-oxo-2,5,7,8-tetrahydro-1H-pyrano[4,3-b]pyridine-3-carboxamido)acetic acid]
20.2 nM | CS(=O)(=O)c1ccc(Cn2c3c(c(O)c(C(=O)NCC(=O)O)c2=O)COCC3)cc1 [Example 11, 2-(4-hydroxy-1-(4-(methylsulfonyl)benzyl)-2-oxo-2,5,7,8-tetrahydro-1H-pyrano[4,3-b]pyridine-3-carboxamido)acetic acid]
12.5 nM | CC(C)c1ccc(Cn2c3c(c(O)c(C(=O)NCC(=O)O)c2=O)COCC3)cc1 [Example 12, 2-(4-hydroxy-1-(4-isopropylbenzyl)-2-oxo-2,5,7,8-tetrahydro-1H-pyrano[4,3-b]pyridine-3-carboxamido)acetic acid]
20.5 nM | CC(C)Oc1ccc(Cn2c3c(c(O)c(C(=O)NCC(=O)O)c2=O)COCC3)cc1 [Example 13, 2-(4-hydroxy-1-(4-isopropoxybenzyl)-2-oxo-2,5,7,8-tetrahydro-1H-pyrano[4,3-b]pyridine-3-carboxamido)acetic acid]
14.7 nM | O=C(O)CNC(=O)c1c(O)c2c(n(Cc3ccc(F)c(F)c3)c1=O)CCOC2 [Example 15, 2-(1-(3,4-difluorobenzyl)-4-hydroxy-2-oxo-2,5,7,8-tetrahydro-1H-pyrano[4,3-b]pyridine-3-carboxamido)acetic acid]
10.3 nM | O=C(O)CNC(=O)c1c(O)c2c(n(Cc3ccc(F)cc3F)c1=O)CCOC2 [Example 16, 2-(1-(2,4-difluorobenzyl)-4-hydroxy-2-oxo-2,5,7,8-tetrahydro-1H-pyrano[4,3-b]pyridine-3-carboxamido)acetic acid]
19.2 nM | O=C(O)CNC(=O)c1c(O)c2c(n(Cc3ccc(Cl)cc3F)c1=O)CCOC2 [Example 18, 2-(1-(4-chloro-2-fluorobenzyl)-4-hydroxy-2-oxo-2,5,7,8-tetrahydro-1H-pyrano[4,3-b]pyridine-3-carboxamid)acetic acid]
78.5 nM | CCn1c2c(c(O)c(C(=O)NCC(=O)O)c1=O)COCC2 [Example 19, 2-(1-ethyl-4-hydroxy-2-oxo-2,5,7,8-tetrahydro-1H-pyrano[4,3-b]pyridine-3-carboxamido)acetic acid]
76 nM | O=C(O)CNC(=O)c1c(O)c2c(n(CC3CCCCC3)c1=O)CCOC2 [Example 20, 2-(1-(cyclohexylmethyl)-4-hydroxy-2-oxo-2,5,7,8-tetrahydro-1H-pyrano[4,3-b]pyridine-3-carboxamido)acetic acid]
37.7 nM | O=C(O)CNC(=O)c1c(O)c2c(n(Cc3ccc4ccccc4c3)c1=O)CCOC2 [Example 21, 2-(4-hydroxy-1-(naphthalen-2-ylmethyl)-2-oxo-2,5,7,8-tetrahydro-1H-pyrano[4,3-b]pyridine-3-carboxamido)acetic acid]

IC50 | SMILES
56.1 nM | Cn1c2c(c(O)c(C(=O)NCC(=O)O)c1=O)COCC2 [Example 22, 2-(4-hydroxy-1-methyl-2-oxo-2,5,7,8-tetrahydro-1H-pyrano[4,3-b]pyridine-3-carboxamido)acetic acid]
44.5 nM | O=C(O)CNC(=O)c1c(O)c2c(n(Cc3ncc(C(F)(F)F)cn3)c1=O)CCOC2 [Example 23, 2-(4-hydroxy-2-oxo-1-((5-(trifluoromethyl)pyrimidin-2-yl)methyl)-2,5,7,8-tetrahydro-1H-pyrano[4,3-b]pyridine-3-carboxamido)acetic acid]
16.8 nM | O=C(O)CNC(=O)c1c(O)c2c(n(Cc3cc(F)c(F)cc3F)c1=O)CCOC2 [Example 24, 2-(4-Hydroxy-2-oxo-1-(2,4,5-trifluorobenzyl)-2,5,7,8-tetrahydro-1H-pyrano[4,3-b]pyridine-3-carboxamido)acetic acid]
30.8 nM | CNC(=O)c1ccc(Cn2c3c(c(O)c(C(=O)NCC(=O)O)c2=O)COCC3)cc1 [Example 26, 2-(4-Hydroxy-1-(4-(methylcarbamoyl)benzyl)-2-oxo-2,5,7,8-tetrahydro-1H-pyrano[4,3-b]pyridine-3-carboxamido)acetic acid]
32.6 nM | Cn1ccc(Cn2c3c(c(O)c(C(=O)NCC(=O)O)c2=O)COCC3)n1 [Example 27, 2-(4-Hydroxy-1-((1-methyl-1H-pyrazol-3-yl)methyl)-2-oxo-2,5,7,8-tetrahydro-1H-pyrano[4,3-b]pyridine-3-carboxamido)acetic acid]
14.5 nM | Cc1cc(Cn2c3c(c(O)c(C(=O)NCC(=O)O)c2=O)COCC3)ccc1C#N [Example 28, 2-(1-(4-Cyano-3-methylbenzyl)-4-hydroxy-2-oxo-2,5,7,8-tetrahydro-1H-pyrano[4,3-b]pyridine-3-carboxamido)acetic acid]
16 nM | N#Cc1ccc(Cn2c3c(c(O)c(C(=O)NCC(=O)O)c2=O)COCC3)cc1F [Example 29, 2-(1-(4-Cyano-3-fluorobenzyl)-4-hydroxy-2-oxo-2,5,7,8-tetrahydro-1H-pyrano[4,3-b]pyridine-3-carboxamido)acetic acid]
17.4 nM | COc1ccc(Cn2c3c(c(O)c(C(=O)NCC(=O)O)c2=O)COCC3)cn1 [Example 30, 2-(4-Hydroxy-1-((6-methoxypyridin-3-yl)methyl)-2-oxo-2,5,7,8-tetrahydro-1H-pyrano[4,3-b]pyridine-3-carboxamido)acetic acid]
32.8 nM | O=C(O)CNC(=O)c1c(O)c2c(n(Cc3cncs3)c1=O)CCOC2 [Example 31, 2-(4-Hydroxy-2-oxo-1-(thiazol-5-ylmethyl)-2,5,7,8-tetrahydro-1H-pyrano[4,3-b]pyridine-3-carboxamido)acetic acid]
12.1 nM | O=C(O)CNC(=O)c1c(O)c2c(n(Cc3ccn(-c4ccccc4)n3)c1=O)CCOC2 [Example 32, 2-(4-Hydroxy-2-oxo-1-((1-phenyl-1H-pyrazol-3-yl)methyl)-2,5,7,8-tetrahydro-1H-pyrano[4,3-b]pyridine-3-carboxamido)acetic acid]
49.9 nM | CC(C)(O)c1ccc(Cn2c3c(c(O)c(C(=O)NCC(=O)O)c2=O)COCC3)cc1 [Example 33, 2-(4-Hydroxy-1-(4-(2-hydroxypropan-2-yl)benzyl)-2-oxo-2,5,7,8-tetrahydro-1H-pyrano[4,3-b]pyridine-3-carboxamido)acetic acid]
29.3 nM | NC(=O)c1ccc(Cn2c3c(c(O)c(C(=O)NCC(=O)O)c2=O)COCC3)cc1 [Example 34, 2-(1-(4-Carbamoylbenzyl)-4-hydroxy-2-oxo-2,5,7,8-tetrahydro-1H-pyrano[4,3-b]pyridine-3-carboxamido)acetic acid]
15.1 nM | O=C(O)CNC(=O)c1c(O)c2c(n(Cc3csc(C(F)(F)F)n3)c1=O)CCOC2 [Example 35, 2-(4-Hydroxy-2-oxo-1-((2-(trifluoromethyl)thiazol-4-yl)methyl)-2,5,7,8-tetrahydro-1H-pyrano[4,3-b]pyridine-3-carboxamido)acetic acid]
98.8 nM | O=C(O)CNC(=O)c1c(O)c2c(n(-c3ccc(OC(F)(F)F)cc3)c1=O)CCOC2 [Example 36, 2-(4-Hydroxy-2-oxo-1-(4-(trifluoromethoxy)phenyl)-2,5,7,8-tetrahydro-1H-pyrano[4,3-b]pyridine-3-carboxamido)acetic acid]
50.2 nM | O=C(O)CNC(=O)c1c(O)c2c(n(Cc3ccc(Cl)cc3)c1=O)COCC2 [Example 37, 2-(1-(4-Chlorobenzyl)-4-hydroxy-2-oxo-2,5,6,8-tetrahydro-1H-pyrano[3,4-b]pyridine-3-carboxamido)acetic acid]
24.1 nM | O=C(O)CNC(=O)c1c(O)c2c(n(Cc3ccc(F)cc3F)c1=O)COCC2 [Example 38, 2-(1-(2,4-difluorobenzyl)-4-hydroxy-2-oxo-2,5,6,8-tetrahydro-1H-pyrano[3,4-b]pyridine-3-carboxamido)acetic acid]
